Data reported in patent US11661398B2, “Cellular transport system for transferring a sulfonic acid construct carrying a cargo into the cytoplasm of a cell” (Scientist of Fortune, S.A., priority 2017, dated 2023).
Structures can show the parent of a compound that is named as a salt.

Legend:
PnGGT ΔN24 D405N = biological target: T1, PnGGT ΔN24 D405N (Pseudomonas nitroreducens, UniProt E0D5C2, D405N); test: Kinetic measurements with purified PnGGT ΔN24 D405N; assay type: biochemical; conditions: purified enzyme, 50 mM Tris-HCl (pH 9.0)
T1 sequence (E0D5C2 with tags, fused parts or gaps D405N): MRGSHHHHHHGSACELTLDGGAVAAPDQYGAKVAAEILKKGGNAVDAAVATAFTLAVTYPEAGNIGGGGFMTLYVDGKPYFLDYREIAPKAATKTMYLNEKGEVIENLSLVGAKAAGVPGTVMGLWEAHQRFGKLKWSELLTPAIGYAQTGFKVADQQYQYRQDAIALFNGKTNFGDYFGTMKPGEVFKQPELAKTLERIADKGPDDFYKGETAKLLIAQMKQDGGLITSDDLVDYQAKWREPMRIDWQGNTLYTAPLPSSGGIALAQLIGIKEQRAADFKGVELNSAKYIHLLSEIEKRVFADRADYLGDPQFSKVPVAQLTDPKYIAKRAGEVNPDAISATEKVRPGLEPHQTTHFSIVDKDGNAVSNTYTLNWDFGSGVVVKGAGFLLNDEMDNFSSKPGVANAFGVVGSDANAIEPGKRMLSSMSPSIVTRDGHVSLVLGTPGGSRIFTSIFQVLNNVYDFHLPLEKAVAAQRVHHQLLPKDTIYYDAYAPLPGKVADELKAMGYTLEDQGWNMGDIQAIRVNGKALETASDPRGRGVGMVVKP
Description: For the experiments relating to the sulfonate based synthetic transport system, purification of PnGGT ΔN24 and PnGGT ΔN24 D405N containing an N-terminal 6×His-tag was performed according to previous reports (Van Dyke et al., 1992) using Ni-NTA Superflow (Qiagen, Hilden, Germany). For kinetic studies, PnGGT variants were purified with the aid of the 6×His-tag located at the N-terminal end of the large subunit following the same procedure. To exchange the buffer, purified proteins were dialyzed against 50 mM Tris/HCl (pH 7.0).
To determine the kinetic parameters of PnGGT ΔN24 and PnGGT ΔN24 D405N the purified enzymes were preincubated in 50 mM Tris-HCl (pH 9.0). To start the reaction, varying concentrations of the substrates L-glutamic acid γ-(3-carboxy-4-nitroanilide) or sulfobutanoyl-p-nitroanilide were added to the mixtures. The results were evaluated using GraphPad Prism (GraphPad Software, La Jolla, Calif., USA).

TK082 = test: In vivo hydrolysis of sulfobutanoyl-p-nitroanilide and sulfobutanoyl-AMC; assay type: cell-based, E. coli; conditions: 0.5 mM compound, different plasmid combinations
Description: Strain TK082 was transformed with plasmids as indicated in the text and grown at 37° C. in MS minimal medium supplemented with 0.5% glucose, 1 mM MgSO4 and 0.4 mM L-leucine to an OD600 of 0.5. At that stage, the synthesis of PnGGT* and/or SsuABC was induced for 2 hours by adding 0.5 mM IPTG and 100 ng mL^−1 aTc. Following this synthesis period, cells were washed in the same medium to remove proteins that had been released into the medium by cell lysis. After an additional centrifugation step, cells were resuspended in MS minimal medium supplemented with 0.5% glucose, 1 mM MgSO4, 0.4 mM L-leucine, 0.5 mM IPTG, 100 ng mL^−1 aTc and 0.5 mM sulfobutanoyl-p-nitroanilide or sulfobutanoyl-AMC (see below for description of synthesis) and incubated in a Tecan Infinite 200 Pro plate reader at 37° C. To monitor cell density and the release of 4-nitroaniline, absorbance was constantly measured at 600 nm and 410 nm. The release of AMC was monitored by measuring the fluorescence at λex=350 nm and λem=450 nm. To determine the influence of competition for the sulfonate transporter SsuABC, different concentrations of pentanesulfonate (Sigma Aldrich) were added to the medium.

BW25113 ΔleuB (TK080) = test: Growth on different sulfur sources; assay type: cell-based, E. coli; conditions: 1 mM sulfur source, minimal medium, 0.5% glucose, 0.4 mM leucine
Description: FIG. 21: Growth of E. coli on sulfonates. Strains TK080 (a; BW25113 ΔleuB) and TK082 (b; BW25113 ΔleuB ΔssuEADCB ΔtauD) were grown in MS minimal medium supplemented with 0.5% glucose, 0.4 mM L-leucine, 1 mM MgCl2 and 1 mM of a sulfur source. TK080 was able to use the majority of the tested sulfur sources with a similar efficiency as sulfate. […] Dots represent the average of three independent measurements with standard deviations shown as error bars.
For the experiments relating to the sulfonate based synthetic transport system, unless stated otherwise, growth experiments in selective medium were carried out in sulfur free MS minimal medium (4 mM citric acid, 1 mM MgCl2, 20 mM NH4Cl, 50 mM KH2PO4 and 1×NTA mix (10 μM nitrilotriacetic acid, 3 μM CaCl2, 3 μM FeCl3, 1 μM MnCl2, 0.3 μM ZnCl2, 0.3 μM H3B3, 0.3 μM CrC3, 0.3 μM COCl2, 0.3 μM CuCl2, 0.3 μM Ni2C, 0.3 μM Na2MoO4, 0.3 μM Na2SeO3)) supplemented with 0.5% glucose. MgSO4 (1 mM), MgCl2 (1 mM), L-leucine (0.4 mM), IPTG (0.5 mM), aTc (100 ng mL-1), nicotinic acid (various concentrations), 3-picolylamine (various concentrations) and sulfonates (various concentrations) as indicated in the text. […] Synthesis schemes for sulfobutanoyl-p-nitroanilide and other sulfonates are given below.
The sulfonate transporters SsuABC and TauABC transport a wide variety of sulfonate compounds (Eichhorn et al., 2000) and can thus be exploited for the present synthetic transport system. As such, the uptake and utilization of sulfobutanoyl-L-leucine was assessed. The leucine auxotrophic strain BW25113 ΔleuB was tested for growth in minimal medium supplemented with 0.5% glucose, 0.4 mM leucine, 0.4 mM isoleucine and 1 mM of a sulfur-containing compound as the sole sulfur source.

Compound: O=C(CCCS(=O)(=O)O)Nc1ccc([N+](=O)[O-])cc1 [sodium salt]
- Km (PnGGT ΔN24 D405N): 767 µM
- Vmax (PnGGT ΔN24 D405N): 10.35 ± 0.28 µmol/min/mg
- kcat (PnGGT ΔN24 D405N): 10.2 s⁻¹
- in vivo release of 4-nitroaniline from the compound (TK082): only released from the SBA moiety when SsuABC and PnGGT* were simultaneously synthesized
- growth with compound as sole sulfur source (BW25113 ΔleuB (TK080)): comparable to growth on other sulfonates
